In article PMC7024391, “Trypanocidal Activity of Flavanone Derivatives” (Molecules, 2020):

How the values were obtained:
[1] = In vitro cytotoxic test on uninfected L-929 cells (alamarBlue); assay type: cell-based, mouse; details: mouse, uninfected L-929 cells; mammalian L929 cells, 96 h, alamarBlue; ± 2.0; read-out: Cytotoxicity CC50(μM) ± 2.0
Experimental: (§1) The active compounds were tested in vitro for determination of cellular toxicity against uninfected L-929 cells using the alamarBlue® dye. The cells were exposed to compounds at increasing concentrations starting at IC50 value for T. cruzi. After 96 h of incubation with the tested compounds, the alamarBlue® was added and the absorbance at 570 and 600 nm measured after 4–6 h. The cell viability was expressed as the percentage of difference in the reduction between treated and untreated cells. IC50 values were calculated by linear interpolation, and the selectivity index (SI) was determined based on the ratio of the IC50 value in the host cell divided by the IC50 value of the parasite. Quadruplicates were run in the same plate, and the experiments were repeated at least once.

L929 cells = test: as above; assay type: cell-based, mouse; details: CC50 L929 / IC50 T. cruzi
Experimental: as §1

[2] = system: Trypanosoma cruzi (amastigotes and trypomastigotes), Tulahuen strain; test: Anti-Trypanosoma cruzi activity assay (amastigotes and trypomastigotes) in infected L929 cells, beta-galactosidase reporter; assay type: cell-based; details: 96 h incubation; for IC50: Trypanosoma cruzi, ± 0.2, read-out: Trypanocide IC50(μM) ± 0.2
Experimental: Flavanone derivatives were evaluated for anti-T. cruzi activity against the intracellular forms of the parasite. Although the use of epimastigotes present in the midgut vector may be utilized for initial screening, we have instead opted for the simultaneous use of trypomastigote and intracellular amastigotes forms that are present during both acute and chronic phases of the disease. This approach is in accordance with the Drugs for Neglected Diseases Initiative guidelines (DNDi). Moreover, it also has the advantage of evaluating bioactive compounds in infected cells while at the same time monitoring their effects on both the relevant forms of the parasite in the same system. Benznidazole was used as a positive control against T. cruzi and cytotoxicity was determined in mammalian L929 cells (Table 1). The bioavailability profile of the flavanones was evaluated by applying the Lipinski rule and data related to the risk of toxicity (mutagenicity, tumorigenicity, irritability, and effects on the reproductive system) carried out through online programs “Molinspiration” and “OSIRIS property explorer” (Table 1). […] Nevertheless, this preliminary result motivated us to investigate other analogs bearing substituents in order to improve potency and selectivity. […] Moreover, the selectivity of 2d was almost 4 times greater than 2a. The importance of methoxy substituents for trypanocidal activity has been noted in other studies. […] These compounds resembled more closely the chemical structure of the trypanocidal natural product (brevifolin carboxylate) that these structures were based on. Some enhancement in the trypanocidal activity of hybrid coumarin-chalcone compounds was also noted when the methoxy groups were introduced into either the 2 or 5 positions of the benzene ring. The inclusion of a pyridine moiety in compound 2e was supported by previous reports describing the anti-T. cruzi activity of 2-pyridyl derivatives and their capacity to inhibit cruzain catalytic activity. […] No improvements in anti-T. cruzi activity were also observed for flavanones substituted at the benzoyl moiety (2g–2o and 2v–2x). […] The physicochemical drug descriptors of the molecular properties for the synthesized compounds were calculated by Molinspiration software (Table 1). The majority of the tested compounds satisfy the Lipinski rule with no violations and therefore displaying potentially good bioavailability. There were no linear correlations observed between molecular hydrophobicity and bioactivity.
The in vitro anti-T. cruzi activity was evaluated on L929 cells (mouse fibroblasts) infected with Tulahuen strain of the parasite expressing the Escherichia coli β-galactosidase as reporter gene. Briefly, for the bioassay, 4000 L929 cells were added to each well of a 96-well microtiter plate. After an overnight incubation, 40,000 trypomastigotes were added to the cells and incubated for 2 h. Then, the medium containing extracellular parasites were replaced with 200 μL of fresh medium and the plate was incubated for an additional 48 h to establish the infection. For IC50 determination, the cells were exposed to each synthesized compound at serial decreasing dilutions and the plate was incubated for 96 h. After this period, 50 μL of 500 μM chlorophenol red beta-D-galactopyranoside (CPRG) in 0.5% Nonidet P40 was added to each well, and the plate was incubated for 16–20 h, after which the absorbance at 570 nm was measured. Controls with uninfected cells, untreated infected cells, infected cells treated with Benznidazole at 3.8 μM (positive control) or DMSO 1% were used. The results were expressed as the percentage of T. cruzi growth inhibition in compound-tested cells as compared to the infected cells and untreated cells. The IC50 values were calculated by linear interpolation. Quadruplicates were run in the same plate, and the experiments were repeated at least once.

Structure (SMILES)	CC50 at 96 h [1] [µM]	SI (selectivity index calculated from CC50/IC50) (L929 cells)	IC50 [2] [µM]	Trypanocide IC50(μM) ± 0.2 [2]
O=C(c1ccccc1)[C@@H]1C(=O)c2ccccc2O[C@H]1c1ccco1 (relative stereo) [Compound 2y, trans-3-benzoyl-2-(furan-2-yl)chroman-4-one]	503	4.4	114	–
COc1ccc(C(=O)[C@@H]2C(=O)c3ccccc3O[C@H]2c2ccc(F)cc2)cc1 (relative stereo) [Compound 2n, trans-2-(4-fluorophenyl)-3-(4-methoxybenzoyl)chroman-4-one]	–	–	213	–
O=C(Cn1ccnc1[N+](=O)[O-])NCc1ccccc1 [Bnz, Benznidazole, reference compound]	–	625	3.8	–
O=C(c1ccccc1)[C@@H]1C(=O)c2ccccc2O[C@H]1c1ccccc1Cl (relative stereo) [Compound 2b, trans-3-benzoyl-2-(2-chlorophenyl)chroman-4-one]	442	40.3	10.7	–
COc1ccc([C@@H]2Oc3ccccc3C(=O)[C@H]2C(=O)c2ccc(C)cc2)cc1 (relative stereo) [Compound 2i, trans-2-(4-methoxyphenyl)-3-(4-methylbenzoyl)chroman-4-one]	107	4.3	25	–
O=C(c1ccccc1)[C@@H]1C(=O)c2ccccc2O[C@H]1c1ccc([N+](=O)[O-])o1 (relative stereo) [Compound 2z, trans-3-benzoyl-2-(5-nitrofuran-2-yl)chroman-4-one]	27.5	10.6	2.6	–
COc1ccc2c(c1)C(=O)[C@@H](C(=O)c1ccccc1)[C@H](c1ccc(F)cc1)O2 (relative stereo) [Compound 2r, trans-3-benzoyl-2-(4-fluorophenyl)-6-methoxychroman-4-one]	106	6.1	17.6	–
CCC1(C(=O)c2ccccc2)C(=O)c2ccccc2OC1c1ccccc1 (stereo not drawn) [Compound 4, 3-Benzoyl-3-ethyl-2-phenylchroman-4-one]	449	34.03	13.2	–
COc1ccc2c(c1)C(=O)[C@@H](C(=O)c1ccccc1)[C@H](c1ccccc1Cl)O2 (relative stereo) [Compound 2s, trans-3-benzoyl-2-(2-chlorophenyl)-6-methoxychroman-4-one]	102	5.5	18.4	–
O=C(c1ccccc1)[C@@H]1C(=O)c2ccccc2O[C@H]1c1ccccc1 (relative stereo) [Compound 2a, trans-3-benzoyl-2-phenylchroman-4-one]	80	9.1	8.8	–
Cc1ccc(C(=O)[C@@H]2C(=O)c3ccccc3O[C@H]2c2ccccc2)cc1 (relative stereo) [Compound 2g, trans-3-(4-methylbenzoyl)-2-phenylchroman-4-one]	–	–	–	Inactive
COc1ccc([C@@H]2Oc3ccccc3C(=O)[C@H]2C(=O)c2ccccc2)cc1 (relative stereo) [Compound 2d, trans-3-benzoyl-2-(4-methoxyphenyl)chroman-4-one]	223	38.5	5.8	–
COc1ccc([C@@H]2Oc3ccc(Cl)cc3C(=O)[C@H]2C(=O)c2ccccc2)cc1 (relative stereo) [Compound 2u, trans-3-benzoyl-6-chloro-2-(4-methoxyphenyl)chroman-4-one]	205	3.5	59.2	–
O=C(c1ccccc1)[C@@H]1C(=O)c2ccccc2O[C@H]1c1ccc(F)cc1 (relative stereo) [Compound 2c, trans-3-benzoyl-2-(4-fluorophenyl)chroman-4-one]	231	10.5	21.9	–
O=C(c1ccccc1)[C@@H]1C(=O)c2cc(Cl)ccc2O[C@H]1c1ccccc1 (relative stereo) [Compound 2t, trans-3-benzoyl-6-chloro-2-phenylchroman-4-one]	221	9.5	23.2	–
O=C(c1ccc(Cl)cc1)[C@@H]1C(=O)c2ccccc2O[C@H]1c1ccccc1 (relative stereo) [Compound 2k, trans-3-(4-chlorobenzoyl)-2-phenylchroman-4-one]	110	3.8	29.3	–
O=C(c1ccco1)[C@@H]1C(=O)c2ccccc2O[C@H]1c1ccccc1 (relative stereo) [Compound 2v, trans-3-(furan-2-carbonyl)-2-phenylchroman-4-one]	–	–	–	Inactive
COc1ccc2c(c1)C(=O)[C@@H](C(=O)c1ccccc1)[C@H](c1ccccc1)O2 (relative stereo) [Compound 2p, trans-3-benzoyl-6-methoxy-2-phenylchroman-4-one]	–	–	–	Inactive
COc1ccc(C(=O)[C@@H]2C(=O)c3ccccc3O[C@H]2c2ccc(OC)cc2)cc1 (relative stereo) [Compound 2m, trans-3-(4-methoxybenzoyl)-2-(4-methoxyphenyl)chroman-4-one]	103	2.8	37.4	–
COc1ccc(C(=O)[C@@H]2C(=O)c3ccccc3O[C@H]2c2ccccc2)cc1 (relative stereo) [Compound 2l, trans-3-(4-methoxybenzoyl)-2-phenylchroman-4-one]	223	1	223	–
c1ccc(-c2n[nH]c3c2C(c2ccccc2)Oc2ccccc2-3)cc1 (stereo not drawn) [Compound 5, 3,4-diphenyl-1,4-dihydrochromeno[4,3-c]pyrazole]	38.6	4.6	8.3	–
C[C@@H]1Oc2ccccc2C(=O)[C@H]1C(=O)c1ccccc1 (relative stereo) [Compound 3, trans-3-benzoyl-2-methylchroman-4-one]	–	–	–	completely inactive
COc1ccc([C@@H]2Oc3ccc(OC)cc3C(=O)[C@H]2C(=O)c2ccccc2)cc1 (relative stereo) [Compound 2q, trans-3-benzoyl-6-methoxy-2-(4-methoxyphenyl)chroman-4-one]	206	1.4	141	–
O=C(c1ccccc1)[C@@H]1C(=O)c2ccccc2O[C@H]1c1ccccn1 (relative stereo) [Compound 2e, trans-3-benzoyl-2-(pyridin-2-yl)chroman-4-one]	243	1.3	184	–
COc1ccc([C@@H]2Oc3ccccc3C(=O)[C@H]2C(=O)c2ccco2)cc1 (relative stereo) [Compound 2w, trans-3-(furan-2-carbonyl)-2-(4-methoxyphenyl)chroman-4-one]	–	–	–	Inactive
O=C(c1ccco1)[C@@H]1C(=O)c2ccccc2O[C@H]1c1ccc(F)cc1 (relative stereo) [Compound 2x, trans-2-(4-fluorophenyl)-3-(furan-2-carbonyl)chroman-4-one]	–	–	–	Inactive
